Patent US12097213B2, “Sequential treatment of cancers using 6-thio-dG, checkpoint inhibitors and radiation therapy” (The Board of Regents of the University of Texas System, priority 2020, dated 2024)
pIC50: −log10 of the molar value.

Tests used:
MC38 cells [1] = experiment: Cell viability assay (CellTiter 96), MC38; assay type: cell-based; details: Mus musculus, MC-38, 120 h; cells treated for 5 days; read-out: IC50 concentration, cell viability
Protocol: (§1) Cell viability assay. For determination of IC50 with cell proliferation assays, murine and human cancer cell lines were screened with 6-thio-dG with a 2-fold dilution series in 8 different points in 96-well plates. Cells were plated 24 hrs prior to the addition of drug, incubated for 4-5 days, and assayed using CellTiter 96® Aqueous One Solution Cell Proliferation Assay according to the manufacturer's instructions (Promega). Cell number per well ranged from 1,000 to 10,000 cells per well inversely proportional to doubling times. Dose response curves were generated and IC50s calculated using Graphpad Prism. All samples were analyzed in triplicate and standard deviations are from 2-3 independent experiments.

[2] = tested on: HCT116 human colon cancer cells; experiment: Cell viability assay (CellTiter 96), HCT116; assay type: cell-based; details: HCT-116, 120 h, cells treated for 5 days
Protocol: as §1

[3] = tested on: LLC murine lung cancer cells; experiment: Cell viability assay (CellTiter 96), LLC; assay type: cell-based, mouse; details: treated for 4 days
Protocol: as §1

[4] = tested on: CT26 murine colon cancer cells; experiment: Cell viability assay (CellTiter 96), CT26; assay type: cell-based, mouse
Protocol: as §1

MC38 cells [5] = experiment: Colony formation assay; assay type: cell-based, mouse; details: 0.5 μM 6-thio-dG every three days for 13 days
Protocol: Colony formation assay. MC38 cells were seeded in three different concentrations on six well plates (1000-4000 cells/well) and treated with various drug concentrations every 3-4 days. Following 13 days treatment, cells were fixed and stained with 6% glutaraldehyde (Fisher Scientific) plus 0.5% crystal violet (Sigma) solution. After washing with tap water, cells were air-dried and images captured using a G-BOX (Syngene, model: G-BOX F3).

MC38 tumor cells = experiment: MC38 tumor growth and treatment in mice; assay type: in vivo, mouse
Protocol: (§2) Tumor growth and treatment. A total of 5×10^5 MC38, 5×10^5 CT26 or 1×10^6 LLC cells were inoculated subcutaneously into right dorsal flanks of the mice in 100 μL phosphate buffered saline (PBS). Tumor-bearing mice were randomly grouped into treatment groups when tumors grew to around 100 mm^3. For 6-thio-dG single treatment, 3 mg/kg 6-thio-dG was intraperitoneally given on days 7, 8 and 9 in MC38 tumor and LLC tumor and on days 5, 6, 7 for CT26 tumor. For CSF1R, NKL.1, CD4+ and CD8+ T cell depletion, 200 μg of antibodies were intraperitoneally injected 1 day before treatment initiation and then twice a week for 2 weeks. For PD-L1 blockade combination therapy in MC38 model, 6-thio-dG was given on day 10 and day 11, 50 μg PD-L1 was intraperitoneally injected on day 13 and 17. For PD-L1 blockade combination therapy in LLC model, 6-thio-dG was given on day 4, 5, 6, 10 and 11, 200 μg PD-L1 was intraperitoneally injected on day 8 and 13. Tumor volumes were measured by the length (a), width (b) and height (h) and calculated as tumor volume=abh/2.

[6] = tested on: LLC murine lung tumor cells; experiment: LLC tumor growth and treatment in mice; assay type: in vivo, mouse
Protocol: as §2, with “For 6-thio-dG single treatment, 3 mg/kg 6-thio-dG was intraperitoneally given on days 7, 8 and 9 in MC38 tumor and LLC tumor and on days 5, 6, 7 for CT26 tumor.” left out

CT26 tumor cells = experiment: CT26 tumor growth and treatment in mice; assay type: in vivo, mouse; details: BALB/C mice; 3 mg/kg, three days treatment (days 5, 6, 7)
Protocol: as §2

[7] = tested on: DCs co-cultured with MC38 cells; experiment: Detection of EdU-labeled tumor DNA in bone marrow derived dendritic cells; assay type: cell-based, mouse; details: MC38 labeled with 25 μM EdU, 1 μM 6-thio-dG
Protocol: Detection of DNA in Bone Marrow Derived Dendritic Cells. Cells were labeled with EdU as described previously (Min et al., 2019). Briefly, 100,000 MC38 cells were seeded to 6-well plate and labeled with 25 μM EdU. Two days later, cells were washed out and treated with 1 μM 6-thio-dG for 24 hrs. Cells were washed out again and co-cultured with BMDCs for overnight. Next day, DCs were sorted out with magnetic beads, washed, fixed and cytospun. Slides were then stained with 6-carboxytetramethlyrhodamine fluorescent azide (Invitrogen) in fresh homemade EdU-staining solution (PBS containing 1 mM CuSO4, 2 mM ascorbic acid) for 30 min. Slides were then washed vigorously with PBS for at least 1 hr, and then telomere FISH steps using a FAM-TelG probe were followed as described in “Telomere dysfunction Induced Foci (TIF) and micronuclei assays” method parts. Images were captured at 63× magnification with an Axio Imager Z2 equipped with an automatic metaphase capture system (Coolcubel camera) and analyzed with ISIS software (Metasystems).

tumor cells = experiment: Autophagy in tumor cells (data not shown); assay type: cell-based; details: after 6-thio-dG treatment

pIC50 [2]: 6.14
SMILES: Nc1nc2c(ncn2[C@H]2C[C@H](O)[C@@H](CO)O2)c(=S)[nH]1 [6-thio-dG, 6-thio-2′-deoxyguanosine]
pIC50 (MC38 cells [1]): 6.43 | cell viability in vitro [3]: cell viability inhibition | cell viability in vitro [4]: cell viability inhibition | cells forming colonies (MC38 cells [5]): less than 50% | therapeutic effect on tumor growth with CD4+ T cell depletion (MC38 tumor cells; 200 μg anti-CD4, 3 mg/kg, days 7, 8, 9): marginal influence | therapeutic effect on tumor growth with CD8+ T cell depletion (MC38 tumor cells; 200 μg anti-CD8, 3 mg/kg, days 7, 8, 9): completely abolished | tumor growth with macrophage depletion (MC38 tumor cells; 200 μg anti-CSF1R, 3 mg/kg, days 7, 8, 9): worked even better | therapeutic effect with NK cell depletion (MC38 tumor cells; 200 μg anti-NK1.1, 3 mg/kg, days 7, 8, 9): did not see an impact | tumor growth (MC38 tumor cells; Batf3 deficient mice, 3 mg/kg, days 7, 8, 9): partially delayed tumor growth but was significantly less effective compared with WT mice | mice tumor free (MC38 tumor cells; Batf3−/− mice): none | anti-tumor effect (MC38 tumor cells; Ifnar1−/− mice, 3 mg/kg, days 7, 8, 9): abolished | tumor growth (MC38 tumor cells; Mb21d1KO MC38 tumor cells in C57BL/6 mice, 3 mg/kg, days 7, 8, 9): still controlled tumor growth | tumor growth (MC38 tumor cells; Myd88−/− mice, 3 mg/kg, days 7, 8, 9): controlled tumor growth well | therapeutic effect on tumor growth (MC38 tumor cells; Rag1 knock out mice, 3 mg/kg, days 7, 8, 9): completely diminished | tumor growth (MC38 tumor cells; Tmem173KO MC38 tumor cells in C57BL/6 mice, 3 mg/kg, days 7, 8, 9): still controlled tumor growth | tumor growth (efficacy) (MC38 tumor cells; Tmem173−/− mice, 3 mg/kg, days 7, 8, 9): completely lost efficacy | tumor growth (MC38 tumor cells; WT C57BL/6 mice, 3 mg/kg daily for three days (days 7, 8, 9), i.p., vs control tumor): significantly reduced | mice completely tumor free (MC38 tumor cells; WT mice): 60% | re-challenge with MC38 tumor (memory response) (MC38 tumor cells; cured mice rested 5 weeks, 10 times more tumor cells, opposite flank): spontaneously rejected re-challenged MC38 tumors | tumor volume / tumor growth in advanced tumors (MC38 tumor cells; tumor sizes 150-200 mm^3, 6-thio-dG 3 mg/kg days 10, 11, 50 μg anti-PD-L1 days 13 and 17): difficult to control | tumor growth ([6]; C57BL/6 mice, 3 mg/kg, three days treatment (days 4, 5, 6)): significant tumor growth delay | tumor growth (FIG. 8A) ([6]; lewis lung carcinoma, three days 6-thio-dG followed two days later with anti-PD-L1): significant tumor control for 20 days | tumor growth (CT26 tumor cells): significant tumor growth delay | telomere co-localization with EdU in EdU+ DCs [7]: increase | activation of autophagy in tumor cells (tumor cells): did not see activation of autophagy
